# Patent US20190298740A1, “METHODS AND COMPOSITIONS FOR TREATING HALLUCINATIONS AND CONDITIONS RELATED TO THE SAME” (Enterin, Inc., priority 2018, published 2019)
# Read-outs that look alike come from different tables or passages of the source.
# How the values were obtained:
# [1] = Pharmacokinetics of orally administered squalamine (ENT-01), Phase 2 trial; format: in vivo; details: human; for AUC(0-t) / half-life / Cmax / Tmax: po; for Cmax: mean, approximate; for Tmax: read-out: Tmax (median value)
# Method: PK data were collected on the 10 patients enrolled in Stage 1 and 10 patients enrolled in Stage 2 to determine the extent of systemic absorption. In Stage 1, PK data were obtained at each visit, pre-medication, at 1, 2, 4, 8 and 24 hours (Table 11). In Stage 2, PK was measured on days 1 and 6 of the randomization period pre-medication, at 1, 2, 4 and 8 hours (Table 12).
# The mean Cmax, Tmax and T1/2 and AUC of the squalamine ion following squalamine (ENT-01) oral dosing for Stage 1 patients. The PK analyses are only approximate, as the lower limit of the validated concentration range was 10 ng/ml; most of the measured concentrations fell below that value. The mean Cmax, Tmax and T1/2 and AUC of the squalamine ion following squalamine (ENT-01) oral dosing for Stage 2 patients. The PK analyses are only approximate, as the lower limit of the validated concentration range was 0.5 ng/ml.
# [2] = Safety and adverse event profile, Phase 2 trial; format: in vivo, human;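 on Diarrhea, common adverse events by dose: number of subjects experiencing the event at each dose level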;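 on Nausea, common adverse events by dose: number of subjects experiencing the event at each dose level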;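 on Vomiting, common adverse events by dose: number of subjects experiencing the event at each dose level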
# Text: Tolerability limits included diarrhea or vomiting.
# [3] = in vivo, 50 mg, Stage 1, 50 mg oral, 10 patients
# [4] = in vivo, 100 mg, Stage 2, 100 mg oral daily, 4 patients (2 visits each)
# [5] = in vivo, 175 mg, Stage 1, 175 mg oral, 7 patients
# [6] = in vivo, 175 mg, Stage 2, 175 mg oral daily, 5 patients (2 visits each)
# [7] = plasma, 25 mg, Stage 1, 25 mg oral, 9 patients
# [8] = plasma, 75 mg, Stage 1, 75 mg oral, 9 patients
# [9] = plasma, 75 mg, Stage 2, 75 mg oral daily, 1 patient (2 visits)
# [10] = plasma, 100 mg, Stage 1, 100 mg oral, 9 patients
# [11] = plasma, 125 mg, Stage 1, 125 mg oral, 9 patients
# [12] = plasma, 200 mg, Stage 1, 200 mg oral, 6 patients
smiles,measurement,setting,value
"CC(C)[C@@H](CC[C@@H](C)[C@H]1CC[C@H]2[C@@H]3[C@H](O)C[C@H]4C[C@@H](NCCCNCCCCN)CC[C@]4(C)[C@H]3CC[C@]12C)OS(=O)(=O)O (single isomer, unassigned) [squalamine (ENT-01)]",AUC(0-t),"[1]; in vivo, 25 mg, Stage 1, 25 mg oral, 9 patients, read-out: AUC0-8hr",10.8 ng·h/mL
same,AUC(0-t),"[1]; in vivo, 25 mg, Stage 1, 25 mg oral, 9 patients, read-out: AUC0-16hr",19.6 ng·h/mL
same,half-life,"[1]; in vivo, 25 mg, Stage 1, 25 mg oral, n = 3, read-out: T½ (converted)",2.6 h
same,Cmax,[1]; [3],3.73 ng/mL
same,AUC(0-t),"[1]; in vivo, 50 mg, Stage 1, 50 mg oral, 10 patients, read-out: AUC0-8hr",18.5 ng·h/mL
same,AUC(0-t),"[1]; in vivo, 50 mg, Stage 1, 50 mg oral, 10 patients, read-out: AUC0-16hr",33.1 ng·h/mL
same,Tmax,[1]; [3],2 h
same,half-life,"[1]; in vivo, 50 mg, Stage 1, 50 mg oral, n = 3, read-out: T½ (converted)",3.4 h
same,Cmax,[1]; [4],17.7 ng/mL
same,AUC(0-t),"[1]; in vivo, 100 mg, Stage 2, 100 mg oral daily, 4 patients (2 visits each), read-out: AUC0-8 hr",70.3 ng·h/mL
same,Tmax,[1]; [4],1 h
same,half-life,"[1]; in vivo, 100 mg, Stage 2, 100 mg oral daily, n = 5, read-out: T1/2 (converted)",4.8 h
same,AUC(0-t),"[1]; in vivo, 150 mg, Stage 1, 150 mg oral, 7 patients, read-out: AUC0-8hr",31.5 ng·h/mL
same,AUC(0-t),"[1]; in vivo, 150 mg, Stage 1, 150 mg oral, 7 patients, read-out: AUC0-16hr",64 ng·h/mL
same,Tmax,"[1]; in vivo, 150 mg, Stage 1, 150 mg oral, 7 patients",2 h
same,half-life,"[1]; in vivo, 150 mg, Stage 1, 150 mg oral, n = 4, read-out: T½ (converted)",5.6 h
same,Cmax,[1]; [5],10.3 ng/mL
same,AUC(0-t),"[1]; in vivo, 175 mg, Stage 1, 175 mg oral, 7 patients, read-out: AUC0-8hr",49.7 ng·h/mL
same,Tmax,[1]; [5],2 h
same,half-life,"[1]; in vivo, 175 mg, Stage 1, 175 mg oral, n = 6, read-out: T½ (converted)",9.1 h
same,Cmax,[1]; [6],11.8 ng/mL
same,AUC(0-t),"[1]; in vivo, 175 mg, Stage 2, 175 mg oral daily, 5 patients (2 visits each), read-out: AUC0-8 hr",66.8 ng·h/mL
same,Tmax,[1]; [6],2 h
same,half-life,"[1]; in vivo, 175 mg, Stage 2, 175 mg oral daily, n = 6, read-out: T1/2 (converted)",10 h
same,Cmax,[1]; [7],2.84 ng/mL
same,Tmax,[1]; [7],1 h
same,Cmax,[1]; [8],4.33 ng/mL
same,AUC(0-t),"[1]; plasma, 75 mg, Stage 1, 75 mg oral, 9 patients, read-out: AUC0-8hr",18.4 ng·h/mL
same,AUC(0-t),"[1]; plasma, 75 mg, Stage 1, 75 mg oral, 9 patients, read-out: AUC0-16hr",29.8 ng·h/mL
same,Tmax,[1]; [8],2 h
same,half-life,"[1]; plasma, 75 mg, Stage 1, 75 mg oral, n = 2, read-out: T½ (converted)",2.8 h
same,Cmax,[1]; [9],10 ng/mL
same,AUC(0-t),"[1]; plasma, 75 mg, Stage 2, 75 mg oral daily, 1 patient (2 visits), read-out: AUC0-8 hr",59 ng·h/mL
same,Tmax,[1]; [9],3 h
same,half-life,"[1]; plasma, 75 mg, Stage 2, 75 mg oral daily, n = 1, read-out: T1/2 (converted)",5.5 h
same,Cmax,[1]; [10],6.18 ng/mL
same,AUC(0-t),"[1]; plasma, 100 mg, Stage 1, 100 mg oral, 9 patients, read-out: AUC0-8hr",29.6 ng·h/mL
same,AUC(0-t),"[1]; plasma, 100 mg, Stage 1, 100 mg oral, 9 patients, read-out: AUC0-16hr",51.5 ng·h/mL
same,Tmax,[1]; [10],2 h
same,half-life,"[1]; plasma, 100 mg, Stage 1, 100 mg oral, n = 5, read-out: T½ (converted)",3.9 h
same,Cmax,[1]; [11],9.63 ng/mL
same,AUC(0-t),"[1]; plasma, 125 mg, Stage 1, 125 mg oral, 9 patients, read-out: AUC0-8hr",43.1 ng·h/mL
same,AUC(0-t),"[1]; plasma, 125 mg, Stage 1, 125 mg oral, 9 patients, read-out: AUC0-16hr",77.7 ng·h/mL
same,Tmax,[1]; [11],2 h
same,half-life,"[1]; plasma, 125 mg, Stage 1, 125 mg oral, n = 4, read-out: T½ (converted)",3.9 h
same,Cmax,"[1]; plasma, 150 mg, Stage 1, 150 mg oral, 7 patients",6.27 ng/mL
same,AUC(0-t),"[1]; plasma, 175 mg, Stage 1, 175 mg oral, 7 patients, read-out: AUC0-16hr",91.2 ng·h/mL
same,Cmax,[1]; [12],15.1 ng/mL
same,AUC(0-t),"[1]; plasma, 200 mg, Stage 1, 200 mg oral, 6 patients, read-out: AUC0-8hr",78.3 ng·h/mL
same,AUC(0-t),"[1]; plasma, 200 mg, Stage 1, 200 mg oral, 6 patients, read-out: AUC0-16hr",157 ng·h/mL
same,Tmax,[1]; [12],2 h
same,half-life,"[1]; plasma, 200 mg, Stage 1, 200 mg oral, n = 5, read-out: T½ (converted)",9 h
same,bioavailability,"[1]; plasma, Stage 1, oral dosing up to 200 mg (114 mg/m^2), compared with prior phase 1 IV data, read-out: Approximate oral bioavailability",~0.1%
same,"Diarrhea, common adverse events by dose","[2]; Stage 1, 25 mg",1
same,"Nausea, common adverse events by dose","[2]; Stage 1, 25 mg",0
same,"Vomiting, common adverse events by dose","[2]; Stage 1, 25 mg",0
same,"Diarrhea, common adverse events by dose","[2]; Stage 1, 50 mg",1
same,"Nausea, common adverse events by dose","[2]; Stage 1, 50 mg",0
same,"Vomiting, common adverse events by dose","[2]; Stage 1, 50 mg",0
same,"Diarrhea, common adverse events by dose","[2]; Stage 1, 75 mg",1
same,"Nausea, common adverse events by dose","[2]; Stage 1, 75 mg",0
same,"Vomiting, common adverse events by dose","[2]; Stage 1, 75 mg",0
same,"Diarrhea, common adverse events by dose","[2]; Stage 1, 100 mg",0
same,"Nausea, common adverse events by dose","[2]; Stage 1, 100 mg",1
same,"Vomiting, common adverse events by dose","[2]; Stage 1, 100 mg",1
same,"Diarrhea, common adverse events by dose","[2]; Stage 1, 125 mg",1
same,"Nausea, common adverse events by dose","[2]; Stage 1, 125 mg",2
same,"Vomiting, common adverse events by dose","[2]; Stage 1, 125 mg",1
same,"Diarrhea, common adverse events by dose","[2]; Stage 1, 150 mg",1
same,"Nausea, common adverse events by dose","[2]; Stage 1, 150 mg",0
same,"Vomiting, common adverse events by dose","[2]; Stage 1, 150 mg",0
same,"Diarrhea, common adverse events by dose","[2]; Stage 1, 175 mg",1
same,"Nausea, common adverse events by dose","[2]; Stage 1, 175 mg",1
same,"Vomiting, common adverse events by dose","[2]; Stage 1, 175 mg",0
same,"Diarrhea, common adverse events by dose","[2]; Stage 1, 200 mg",0
same,"Nausea, common adverse events by dose","[2]; Stage 1, 200 mg",2
same,"Vomiting, common adverse events by dose","[2]; Stage 1, 200 mg",0
same,"Diarrhea, common adverse events by dose","[2]; Stage 2, 75 mg",7
same,"Dizziness (lightheadedness included), common adverse events by dose","[2]; Stage 2, 75 mg",8
same,"Nausea, common adverse events by dose","[2]; Stage 2, 75 mg",3
same,"Diarrhea, common adverse events by dose","[2]; Stage 2, 100 mg",10
same,"Dizziness (lightheadedness included), common adverse events by dose","[2]; Stage 2, 100 mg",7
same,"Nausea, common adverse events by dose","[2]; Stage 2, 100 mg",12
same,"Diarrhea, common adverse events by dose","[2]; Stage 2, 125 mg",3
same,"Dizziness (lightheadedness included), common adverse events by dose","[2]; Stage 2, 125 mg",8
same,"Nausea, common adverse events by dose","[2]; Stage 2, 125 mg",4
same,"Diarrhea, common adverse events by dose","[2]; Stage 2, 150 mg",2
same,"Dizziness (lightheadedness included), common adverse events by dose","[2]; Stage 2, 150 mg",2
same,"Nausea, common adverse events by dose","[2]; Stage 2, 150 mg",11
same,"Diarrhea, common adverse events by dose","[2]; Stage 2, 175 mg",1
same,"Dizziness (lightheadedness included), common adverse events by dose","[2]; Stage 2, 175 mg",0
same,"Nausea, common adverse events by dose","[2]; Stage 2, 175 mg",12
same,"Diarrhea, common adverse events by dose","[2]; Stage 2, 200 mg",3
same,"Nausea, common adverse events by dose","[2]; Stage 2, 200 mg",6
same,"Diarrhea, common adverse events by dose","[2]; Stage 2, 225 mg",3
same,"Nausea, common adverse events by dose","[2]; Stage 2, 225 mg",1
same,"Diarrhea, common adverse events by dose","[2]; Stage 2, 250 mg",2
same,Course of all other AEs,[2]; both stages,resolved spontaneously without discontinuation
